From patent US10590085B2, “Heterocyclic amides as kinase inhibitors” (GlaxoSmithKline Intellectual Property Development Limited, priority 2015, dated 2020)
pIC50: −log10 of the molar value.

What was measured:
RIP1 kinase = target: T1, RIP1 kinase (Homo sapiens, UniProt Q13546); experiment: fluorescent polarization based binding assay; settings: mean value, minimum of 2 experiments
T1 sequence (Q13546 1-375 limits assumed): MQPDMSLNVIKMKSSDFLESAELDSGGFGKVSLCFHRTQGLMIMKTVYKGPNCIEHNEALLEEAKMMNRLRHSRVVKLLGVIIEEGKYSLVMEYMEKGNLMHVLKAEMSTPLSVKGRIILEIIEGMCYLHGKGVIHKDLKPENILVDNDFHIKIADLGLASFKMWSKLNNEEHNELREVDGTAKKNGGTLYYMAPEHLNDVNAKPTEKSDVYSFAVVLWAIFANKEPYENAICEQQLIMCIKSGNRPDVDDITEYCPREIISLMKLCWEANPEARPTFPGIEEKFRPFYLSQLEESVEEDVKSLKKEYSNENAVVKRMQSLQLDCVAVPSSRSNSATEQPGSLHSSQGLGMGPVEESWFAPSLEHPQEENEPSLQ
Source text: A fluorescent polarization based binding assay was used to asses the activity of the compounds of this invention, the details of which are disclosed in International Patent Appln. No. PCT/IB2014/059004, now, International Patent Appln. Pub.

[1] = tested on: human monocytic leukemia U937 cells; experiment: necroptosis assay in U937 cells; type: cell-based; settings: viability by cellular ATP (Cell Titer-Glo); for IC50: Homo sapiens, U-937, U937 cells, read-out: mean pIC50, inhibition of necrosis in U937 cells (converted)
Experimental: (§1) The efficacy of RIP1 inhibitors can be tested […] in vitro using a human monocytic leukemia U937 or mouse L929 fibrosarcoma cells in a necroptosis assay. As determined using the method described in He, S. et al. 2009. Cell 137(6):1100-1111 and International Patent Appln. No. PCT/IB2014/059004, now, International Patent Appln. Pub.
(§2) Viability was measured by quantitating cellular levels of ATP using the Cell Titer-Glo kit. All data are means±standard deviation of the mean.

[2] = tested on: mouse L929 fibrosarcoma cells; experiment: necroptosis assay in L929 cells; type: cell-based; settings: viability by cellular ATP (Cell Titer-Glo), read-out: mean pIC50, inhibition of necrosis in L929 cells (converted)
Experimental: as §1, §2

[3] = tested on: TNF/zVAD induced temperature loss in mice; experiment: TNF-driven systemic inflammatory response syndrome model using TNF plus zVAD (temperature loss); type: in vivo, mouse; settings: pre-dosed 15 minutes before i.v. mouse TNF and zVAD

Compound `O=C(C1CCN(c2ncccn2)CC1)N1N=CCC1c1cncc(F)c1` (stereo not drawn) [Example 11, (5-(5-fluoropyridin-3-yl)-4,5-dihydro-1H-pyrazol-1-yl)(1-(pyrimidin-2-yl)-piperidin-4-yl)methanone] has a pIC50 (RIP1 kinase) of ~7.50.

With `CC(C)(C)C(=O)N1N=CC[C@H]1c1ccc(C(F)(F)F)cc1` [Example 62, (S)-2,2-dimethyl-1-(5-(4-(trifluoromethyl)-phenyl)-4,5-dihydro-1H-pyrazol-1-yl)propan-1-one] the pIC50 (RIP1 kinase) was ~7.10 and the “mean pIC50, inhibition of necrosis in U937 cells” value (“mean pIC50, inhibition” for short) [1] was ~7.2.

Compound `Cc1ccc(C(=O)N2N=CCC2c2ccccc2)cc1` (stereo not drawn) [Example 17, (5-phenyl-4,5-dihydro-1H-pyrazol-1-yl)(p-tolyl)-methanone] has a pIC50 (RIP1 kinase) of ~6.90 and an IC50 [1] of ~631 nM.

`CC(C)(C)C(=O)N1N=CC[C@H]1c1ccc(Cl)c(Cl)c1` [Example 40, (S)-1-(5-(3,4-dichlorophenyl)-4,5-dihydro-1H-pyrazol-1-yl)-2,2-dimethyl-propan-1-one] showed a pIC50 (RIP1 kinase) of ~7.30 and an IC50 [2] of ~15.8 nM.

With `CC(C)(C)C(=O)N1N=CC[C@H]1c1cccc(Cl)c1` [Example 44, (S)-1-(5-(3-chlorophenyl)-4,5-dihydro-1H-pyrazol-1-yl)-2,2-dimethyl propan-1-one] the IC50 [2] was ~39.8 nM.

With `CC(=O)N1CCC(C(=O)N2N=CCC2c2ccccc2)CC1` (stereo not drawn) [Example 193, 1-(4-(5-phenyl-4,5-dihydro-1H-pyrazole-1-carbonyl)piperidin-1-yl)ethanone] the “% Inhibition” value ([3]; 140 mg/kg PO) was 94%.

`CC(=O)N1CCC(C(=O)N2N=CCC2c2ccc3c(c2)OCO3)CC1` (stereo not drawn) [Example 12, 1-(4-(5-(benzo[d][1,3]-dioxol-5-yl)-4,5-dihydro-1H-pyrazole-1-carbonyl)-piperidin-1-yl)ethanone] was tested, and the pIC50 (RIP1 kinase) was ~6.30.

`CC(C)(C)C(=O)N1N=CC[C@H]1c1cccc(F)c1` [Example 68, (S)-1-(5-(3-fluorophenyl)-4,5-dihydro-1H-pyrazol-1-yl)-2,2-dimethyl-propan-1-one 2,2,2-trifluoroacetate] gave an IC50 [2] of ~5.01 nM.

`O=C(C1CCN(c2ncccn2)CC1)N1N=CC[C@H]1c1cccnc1` [Example 32, (S)-(5-(pyridin-3-yl)-4,5-dihydro-1H-pyrazol-1-yl)(1-(pyrimidin-2-yl)-piperidin-4-yl)-methanone] was tested, and the pIC50 (RIP1 kinase) was ~7.50 and the IC50 [1] was ~158 nM.

For `O=C(C1CCN(c2ccccn2)CC1)N1N=CC[C@H]1c1cccnc1` [Example 70, (S)-(1-(pyridin-2-yl)piperidin-4-yl) (5-(pyridin-3-yl)-4,5-dihydro-1H-pyrazol-1-yl)-methanone], the pIC50 (RIP1 kinase) was ~6.40.

`Cc1ocnc1C(=O)N1CCC(C(=O)N2N=CCC2c2ccccc2)CC1` (stereo not drawn) [Example 158, (5-methyloxazol-4-yl)(4-(5-phenyl-4,5-dihydro-1H-pyrazole-1-carbonyl)piperidin-1-yl)methanone] was tested, and the “% Inhibition” value ([3]; 10 mg/kg PO) was 77% and the IC50 [1] was 1 to 100 nM.

In the case of `O=C(c1cnsn1)N1CCC(C(=O)N2N=CCC2c2ccccc2)CC1` (stereo not drawn) [Example 155, (1-(1,2,5-thiadiazole-3-carbonyl)piperidin-4-yl)(5-phenyl-4,5-dihydro-1H-pyrazol-1-yl)methanone], the “% Inhibition” value ([3]; 10 mg/kg PO) was 49% and the IC50 [1] was 1 to 100 nM.

`O=C(N1N=CCC1c1ccccc1)C1(F)CCN(c2ncc(F)cn2)CC1` (stereo not drawn) [Example 189, (4-fluoro-1-(5-fluoropyrimidin-2-yl)piperidin-4-yl)(5-phenyl-4,5-dihydro-1H-pyrazol-1-yl)methanone] was tested, and the pIC50 (RIP1 kinase) was 8.00 to 9.00 and the IC50 [1] was 1 to 100 nM.

With `CC(C)(C)C(=O)N1N=CC[C@H]1C1CCCCC1` [Example 56, (S)-1-(5-cyclohexyl-4,5-dihydro-1H-pyrazol-1-yl)-2,2-dimethylpropan-1-one] the IC50 [2] was ~50.1 nM.

With `CC(C)(C)C(=O)N1N=CC[C@H]1c1ccc2[nH]ccc2c1` [Example 91, (S)-1-(5-(1H-indol-5-yl)-4,5-dihydro-1H-pyrazol-1-yl)-2,2-dimethylpropan-1-one] the pIC50 (RIP1 kinase) was ~6.60, the IC50 [2] was ~251 nM and the IC50 [1] was ~100 nM.

With `CC(C)(C)C(=O)N1N=CC[C@H]1c1cccc2[nH]ccc12` [Example 93, (S)-1-(5-(1H-indol-4-yl)-4,5-dihydro-1H-pyrazol-1-yl)-2,2-dimethylpropan-1-one] the pIC50 (RIP1 kinase) was ~7.00, the IC50 [2] was ~79.4 nM and the “mean pIC50, inhibition” value [1] was ~7.0.

Work on `O=C(C1CCN(c2ncc(F)cn2)CC1)N1N=CC[C@H]1c1ccccc1` [Example 7, (S)-(1-(5-fluoropyrimidin-2-yl)piperidin-4-yl)(5-phenyl-4,5-dihydro-1H-pyrazol-1-yl)methanone] yielded a pIC50 (RIP1 kinase) of 8.00 to 9.00 and an IC50 [1] of 1 to 100 nM.

`O=C(C1CCN(c2ncc(F)cn2)CC1)N1N=CCC1c1ccccc1` (stereo not drawn) [Example 6, (1-(5-fluoropyrimidin-2-yl)piperidin-4-yl)(5-phenyl-4,5-dihydro-1H-pyrazol-1-yl)methanone] gave an IC50 [1] of 1 to 100 nM.

With `CC1=NN(C(=O)C2CCN(c3ncc(F)cn3)CC2)C(c2ccccc2)C1` (stereo not drawn) [Example 87, (1-(5-fluoro-pyrimidin-2-yl)-piperidin-4-yl)(3-methyl-5-phenyl-4,5-dihydro-1H-pyrazol-1-yl)-methanone] the IC50 [1] was 1 to 100 nM.

`CC(C)(C)C(=O)N1N=CCC1c1ccc(Cl)cc1` (stereo not drawn) [Example 65, 1-(5-(4-chloro-phenyl)-4,5-dihydro-1H-pyrazol-1-yl)-2,2-dimethyl-propan-1-one] gave an IC50 [1] of 1 to 100 nM.

In the case of `Cc1ccc(C2CC=NN2C(=O)C(C)(C)C)cc1` (stereo not drawn) [Example 58, 2,2-dimethyl-1-(5-(p-tolyl)-4,5-dihydro-1H-pyrazol-1-yl)propan-1-one], the IC50 [1] was 1 to 100 nM.

Compound `O=C(c1noc2ccccc12)N1CCC(C(=O)N2N=CCC2c2ccccc2)CC1` (stereo not drawn) [Example 146, benzo[d]isoxazol-3-yl(4-(5-phenyl-4,5-dihydro-1H-pyrazole-1-carbonyl)piperidin-1-yl)methanone] has an IC50 [1] of 1 to 100 nM.

For `O=C(c1ccon1)N1CCC(C(=O)N2N=CCC2c2ccccc2)CC1` (stereo not drawn) [Example 153, isoxazol-3-yl(4-(5-phenyl-4,5-dihydro-1H-pyrazole-1-carbonyl)piperidin-1-yl)methanone], the IC50 [1] was 1 to 100 nM.

`O=C(C1CCN(c2ccc(F)cn2)CC1)N1N=CC[C@H]1c1ccccc1` [Example 3, (S)-(1-(5-fluoropyridin-2-yl)piperidin-4-yl)(5-phenyl-4,5-dihydro-1H-pyrazol-1-yl)methanone] gave a pIC50 (RIP1 kinase) of 8.00 to 9.00 and an IC50 [1] of 1 to 100 nM.

For `O=C(c1ncco1)N1CCC(C(=O)N2N=CCC2c2ccccc2)CC1` (stereo not drawn) [Example 148, oxazol-2-yl(4-(5-phenyl-4,5-dihydro-1H-pyrazole-1-carbonyl)piperidin-1-yl)methanone], the IC50 [1] was 1 to 100 nM.

In the case of `Cc1ccc([C@@H]2CC=NN2C(=O)C(C)(C)C)cn1` [Example 50, (S)-2,2-dimethyl-1-(5-(6-methylpyridin-3-yl)-4,5-dihydro-1H-pyrazol-1-yl)propan-1-one], the pIC50 (RIP1 kinase) was ~6.20, the IC50 [2] was ~20 nM and the IC50 [1] was ~158 nM.

Compound `O=C(C1CCN(c2ccc(F)cn2)CC1)N1N=CCC1c1ccccc1` (stereo not drawn) [Example 2, (1-(5-fluoropyridin-2-yl)-piperidin-4-yl)(5-phenyl-4,5-dihydro-1H-pyrazol-1-yl)methanone] has a pIC50 (RIP1 kinase) of ~7.40 and an IC50 [2] of ~200 nM.

`Cc1ccccc1C1CC=NN1C(=O)C(C)(C)C` (stereo not drawn) [Example 60, 2,2-dimethyl-1-(5-(o-tolyl)-4,5-dihydro-1H-pyrazol-1-yl)propan-1-one] showed an IC50 [1] of 1 to 100 nM.

For `Cc1ccc(C2CC=NN2C(=O)C2CCN(c3ncc(F)cn3)CC2)cn1` (stereo not drawn) [Example 187, (1-(5-fluoropyrimidin-2-yl)piperidin-4-yl)(5-(6-methylpyridin-3-yl)-4,5-dihydro-1H-pyrazol-1-yl)methanone], the IC50 [1] was 1 to 100 nM.

`O=C(C1CCN(c2ncc(F)cn2)CC1)N1N=CCC1c1ccc(OC(F)F)cc1` (stereo not drawn) [Example 185, (5-(4-(difluoromethoxy)phenyl)-4,5-dihydro-1H-pyrazol-1-yl)(l-(5-fluoropyrimidin-2-yl)piperidin-4-yl)methanone] gave an IC50 [1] of 1 to 100 nM.

With `O=C(c1nccs1)N1CCC(C(=O)N2N=CCC2c2ccccc2)CC1` (stereo not drawn) [Example 112, (5-phenyl-4,5-dihydro-1H-pyrazol-1-yl)(1-(thiazole-2-carbonyl)piperidin-4-yl)methanone] the IC50 [1] was 1 to 100 nM.

`O=C(C1CCN(c2ncccn2)CC1)N1N=CC[C@H]1c1ccccc1` [Example 172, (S)-(5-phenyl-4,5-dihydro-1H-pyrazol-1-yl)(1-(pyrimidin-2-yl)piperidin-4-yl)methanone] was tested, and the IC50 [2] was ~631 nM.

`CC(C)(C)C(=O)N1N=CC[C@H]1c1cncc(F)c1` [Example 15, (S)-1-(5-(5-fluoro-pyridin-3-yl)-4,5-dihydro-1H-pyrazol-1-yl)-2,2-dimethyl-propan-1-one] was tested, and the pIC50 (RIP1 kinase) was ~7.10, the IC50 [2] was ~20 nM and the “mean pIC50, inhibition” value [1] was ~7.2.
